Test results reported in US6737383B1, “Herbicidal oxadiazolidines” (priority 1999, dated 2004).

What was measured:
velvetleaf = assay: Test B pre/postemergence velvetleaf; type: in vivo, Abutilon theophrasti
Method in brief: (§1)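 Response is a visual 0-to-10 score relative to untreated plants, where 0 means no effect and 10 means complete control, taken twelve to sixteen days after application. Treatments went onto soil at planting and onto foliage of 1- to 4-leaf plants, using a surfactant-containing non-phytotoxic solvent.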

smallflower flatsedge = assay: Test B flood test smallflower flatsedge; type: in vivo, Cyperus difformis
Method in brief: (§2)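 Plants were grown to the 2-leaf stage before treatment with test chemical, then held in a greenhouse for twelve to sixteen days. Injury was visually rated against untreated controls on a 0–10 scale, where 0 is no effect and 10 is complete control.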

soybean = assay: Test B pre/postemergence soybean; type: in vivo, Glycine max
Method in brief: as §1

rice = assay: Test B flood test rice; type: in vivo, Oryza sativa
Method in brief: as §2

giant foxtail = assay: Test B pre/postemergence giant foxtail; type: in vivo, Setaria faberii
Method in brief: as §1

sugar beet = assay: Test B pre/postemergence sugar beet; type: in vivo, Beta vulgaris
Method in brief: as §1

corn = assay: Test B pre/postemergence corn; type: in vivo, Zea mays
Method in brief: as §1

morningglory = assay: Test B pre/postemergence morningglory; type: in vivo, Ipomoea hederacea
Method in brief: as §1

blackgrass = assay: Test B pre/postemergence blackgrass; type: in vivo, Alopecurus myosuroides
Method in brief: as §1

surinam grass = assay: Test B pre/postemergence surinam grass; type: in vivo, Brachiaria decumbens
Method in brief: as §1

wild oat = assay: Test B pre/postemergence wild oat; type: in vivo, Avena fatua
Method in brief: as §1

rape = assay: Test B pre/postemergence rape; type: in vivo, Brassica napus
Method in brief: as §1

wheat = assay: Test B pre/postemergence wheat; type: in vivo, Triticum aestivum
Method in brief: as §1

bedstraw = assay: Test B pre/postemergence bedstraw; type: in vivo, Galium aparine
Method in brief: as §1

cocklebur = assay: Test B pre/postemergence cocklebur; type: in vivo, Xanthium strumarium
Method in brief: as §1

pigweed = assay: Test B pre/postemergence pigweed; type: in vivo, Amaranthus retroflexus
Method in brief: as §1

[1] = Postemergence, Rate 62 g/ha, scale 0 to 10, 0 is no effect, 10 is complete control
[2] = Postemergence, Rate 250 g/ha, scale 0 to 10, 0 no effect, 10 complete control
[3] = Preemergence, Rate 62 g/ha, scale 0 to 10 (0 no effect, 10 complete control)
[4] = Preemergence, Rate 125 g/ha, scale 0 to 10 (0 no effect, 10 complete control)
[5] = Preemergence, Rate 250 g/ha, scale of 0 to 10 where 0 is no effect and 10 is complete control
[6] = Preemergence, Rate 500 g/ha, scale 0 (no effect) to 10 (complete control)
[7] = Rate 125 g/ha, Postemergence, scale 0 to 10, 0 no effect, 10 complete control
[8] = Rate 500 g/ha, Postemergence, scale 0 to 10, 0 no effect, 10 complete control
[9] = Rate 125 g/ha, Postemergence section (flood test species), scale 0 to 10, 0 no effect, 10 complete control
[10] = Rate 500 g/ha, listed under Postemergence (flood test species), scale 0 to 10, 0 no effect, 10 complete control
[11] = flood test, listed under Postemergence, Rate 250 g/ha, scale 0 to 10, 0 no effect, 10 complete control

CCN(C(=O)n1oc(=O)n(Cc2cccs2)c1=O)C1CCCCC1 [Compound 82] was tested, and the “Velvetleaf plant response rating” value (velvetleaf; [1]) was 0, the “Velvetleaf plant response rating” value (velvetleaf; [2]) was 0 and the “Velvetleaf plant response rating” value (velvetleaf; [3]) was 0. For the same molecule, the “Plant response rating, Velvetleaf” value (velvetleaf; [4]) was 0, the “Plant response rating, Velvetleaf” value (velvetleaf; [5]) was 0 and the “Velvetleaf plant response rating” value (velvetleaf; [6]) was 0. For the same molecule, the “Velvetleaf plant response rating” value (velvetleaf; [7]) was 0, the “Velvetleaf plant response rating” value (velvetleaf; [8]) was 0 and the “S. Flatsedge plant response rating” value (smallflower flatsedge; [1]) was 0. The “S. Flatsedge plant response rating” value (smallflower flatsedge; [9]) was 0, the “S. Flatsedge plant response rating” value (smallflower flatsedge; [10]) was 0 and the “S. Flatsedge plant response rating” value (smallflower flatsedge; [11]) was 0. For the same molecule, the “Soybean plant response rating” value (soybean; [1]) was 0, the “Soybean plant response rating” value (soybean; [2]) was 0 and the “Soybean plant response rating” value (soybean; [3]) was 0. The “Plant response rating, Soybean” value (soybean; [4]) was 0, the “Plant response rating, Soybean” value (soybean; [5]) was 0 and the “Soybean plant response rating” value (soybean; [6]) was 0. The “Soybean plant response rating” value (soybean; [7]) was 0, the “Soybean plant response rating” value (soybean; [8]) was 1 and the “Rice plant response rating” value (rice; [1]) was 0. For the same molecule, the “Rice plant response rating” value (rice; [9]) was 0, the “Rice plant response rating” value (rice; [10]) was 0 and the “Rice plant response rating” value (rice; [11]) was 0. The “Giant foxtail plant response rating” value (giant foxtail; [1]) was 0, the “Giant foxtail plant response rating” value (giant foxtail; [2]) was 0 and the “Giant foxtail plant response rating” value (giant foxtail; [3]) was 0. For the same molecule, the “Plant response rating, Giant foxtail” value (giant foxtail; [4]) was 0, the “Plant response rating, Giant foxtail” value (giant foxtail; [5]) was 0 and the “Giant foxtail plant response rating” value (giant foxtail; [6]) was 0. For the same molecule, the “Giant foxtail plant response rating” value (giant foxtail; [7]) was 0, the “Giant foxtail plant response rating” value (giant foxtail; [8]) was 0 and the “Sugarbeets plant response rating” value (sugar beet; [1]) was 0. The “Sugarbeets plant response rating” value (sugar beet; [2]) was 0, the “Sugarbeets plant response rating” value (sugar beet; [3]) was 0 and the “Plant response rating, Sugarbeets” value (sugar beet; [4]) was 0. For the same molecule, the “Plant response rating, Sugarbeets” value (sugar beet; [5]) was 0, the “Sugarbeets plant response rating” value (sugar beet; [6]) was 0 and the “Sugarbeets plant response rating” value (sugar beet; [7]) was 0. For the same molecule, the “Sugarbeets plant response rating” value (sugar beet; [8]) was 2, the “Corn plant response rating” value (corn; [1]) was 0 and the “Corn plant response rating” value (corn; [2]) was 0. The “Corn plant response rating” value (corn; [3]) was 0, the “Plant response rating, Corn” value (corn; [4]) was 0 and the “Plant response rating, Corn” value (corn; [5]) was 0. For the same molecule, the “Corn plant response rating” value (corn; [6]) was 0, the “Corn plant response rating” value (corn; [7]) was 0 and the “Corn plant response rating” value (corn; [8]) was 0. For the same molecule, the “Morningglory plant response rating” value (morningglory; [1]) was 4, the “Morningglory plant response rating” value (morningglory; [2]) was 10 and the “Morningglory plant response rating” value (morningglory; [3]) was 0. For the same molecule, the “Plant response rating, Morningglory” value (morningglory; [4]) was 0, the “Plant response rating, Morningglory” value (morningglory; [5]) was 0 and the “Morningglory plant response rating” value (morningglory; [6]) was 0. The “Morningglory plant response rating” value (morningglory; [7]) was 7, the “Morningglory plant response rating” value (morningglory; [8]) was 10 and the “Blackgrass plant response rating” value (blackgrass; [1]) was 0. The “Blackgrass plant response rating” value (blackgrass; [2]) was 0, the “Blackgrass plant response rating” value (blackgrass; [3]) was 0 and the “Plant response rating, Blackgrass” value (blackgrass; [4]) was 0. For the same molecule, the “Plant response rating, Blackgrass” value (blackgrass; [5]) was 0, the “Blackgrass plant response rating” value (blackgrass; [6]) was 0 and the “Blackgrass plant response rating” value (blackgrass; [7]) was 0. For the same molecule, the “Blackgrass plant response rating” value (blackgrass; [8]) was 3, the “B. signalgrass plant response rating” value (surinam grass; [1]) was 0 and the “B. signalgrass plant response rating” value (surinam grass; [2]) was 0. The “B. signalgrass plant response rating” value (surinam grass; [3]) was 0, the “Plant response rating, B. signalgrass” value (surinam grass; [4]) was 0 and the “Plant response rating, B. signalgrass” value (surinam grass; [5]) was 0. The “B. signalgrass plant response rating” value (surinam grass; [6]) was 0, the “B. signalgrass plant response rating” value (surinam grass; [7]) was 0 and the “B. signalgrass plant response rating” value (surinam grass; Rate 500 g/ha, Postemergence, scale of 0 to 10 where 0 is no effect and 10 is complete control) was 0. For the same molecule, the “Wild oats plant response rating” value (wild oat; [1]) was 0, the “Wild oats plant response rating” value (wild oat; [2]) was 0 and the “Wild oats plant response rating” value (wild oat; [3]) was 0. For the same molecule, the “Plant response rating, Wild oats” value (wild oat; [4]) was 0, the “Plant response rating, Wild oats” value (wild oat; [5]) was 0 and the “Wild oats plant response rating” value (wild oat; [6]) was 0. For the same molecule, the “Wild oats plant response rating” value (wild oat; [7]) was 0, the “Wild oats plant response rating” value (wild oat; [8]) was 0 and the “Rape plant response rating” value (rape; [1]) was 0. For the same molecule, the “Rape plant response rating” value (rape; [2]) was 0, the “Rape plant response rating” value (rape; [3]) was 0 and the “Plant response rating, Rape” value (rape; [4]) was 0. For the same molecule, the “Plant response rating, Rape” value (rape; [5]) was 0, the “Rape plant response rating” value (rape; [6]) was 0 and the “Rape plant response rating” value (rape; [7]) was 0. For the same molecule, the “Rape plant response rating” value (rape; [8]) was 0, the “Wheat plant response rating” value (wheat; [1]) was 0 and the “Wheat plant response rating” value (wheat; [2]) was 0. For the same molecule, the “Wheat plant response rating” value (wheat; [3]) was 0, the “Plant response rating, Wheat” value (wheat; [4]) was 0 and the “Plant response rating, Wheat” value (wheat; [5]) was 0. For the same molecule, the “Wheat plant response rating” value (wheat; [6]) was 0, the “Wheat plant response rating” value (wheat; [7]) was 0 and the “Wheat plant response rating” value (wheat; [8]) was 0. For the same molecule, the “Bedstraw plant response rating” value (bedstraw; [1]) was 0, the “Bedstraw plant response rating” value (bedstraw; [2]) was 0 and the “Bedstraw plant response rating” value (bedstraw; [3]) was 0. The “Plant response rating, Bedstraw” value (bedstraw; [4]) was 0, the “Plant response rating, Bedstraw” value (bedstraw; [5]) was 0 and the “Bedstraw plant response rating” value (bedstraw; [6]) was 0. For the same molecule, the “Bedstraw plant response rating” value (bedstraw; [7]) was 0, the “Bedstraw plant response rating” value (bedstraw; [8]) was 1 and the “Cocklebur plant response rating” value (cocklebur; [1]) was 0. The “Cocklebur plant response rating” value (cocklebur; [2]) was 0, the “Cocklebur plant response rating” value (cocklebur; [3]) was 0 and the “Plant response rating, Cocklebur” value (cocklebur; [4]) was 0. The “Plant response rating, Cocklebur” value (cocklebur; [5]) was 0, the “Cocklebur plant response rating” value (cocklebur; [6]) was 0 and the “Cocklebur plant response rating” value (cocklebur; [7]) was 0. For the same molecule, the “Cocklebur plant response rating” value (cocklebur; [8]) was 0, the “Redroot pigweed plant response rating” value (pigweed; [1]) was 0 and the “Redroot pigweed plant response rating” value (pigweed; [2]) was 0. For the same molecule, the “Redroot pigweed plant response rating” value (pigweed; [3]) was 0, the “Plant response rating, Redroot pigweed” value (pigweed; [4]) was 0 and the “Plant response rating, Redroot pigweed” value (pigweed; [5]) was 0. The “Redroot pigweed plant response rating” value (pigweed; [6]) was 0, the “Redroot pigweed plant response rating” value (pigweed; [7]) was 0 and the “Redroot pigweed plant response rating” value (pigweed; [8]) was 0.
